Reference: the supplement of paper PMC10307832

Tests used:
Experiment in all cases: relative viability (nuclei count vs DMSO), 5 days (fraction); higher = more cells survive
Imatinib + Crizotinib = compound: Cc1ccc(NC(=O)c2ccc(CN3CCN(C)CC3)cc2)cc1Nc1nccc(-c2cccnc2)n1 [Imatinib] + C[C@@H](Oc1cc(-c2cnn(C3CCNCC3)c2)cnc1N)c1c(Cl)ccc(F)c1Cl [Crizotinib] (partner 1 µM)
In short: (§1)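 One day after seeding in 1536-well plates, lung cancer cell lines were dosed by pin tool. Dosing was either single-drug or a fixed anchor-drug dose plus five library-drug doses (not always all listed) in √10 steps. After 5 days, nuclei were stained in one fix-and-stain step and counted on 4× images, and relative viability is the nuclei count of treated wells over that of vehicle wells, given as the median of duplicate plates.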

Imatinib + Lapatinib = compound: Cc1ccc(NC(=O)c2ccc(CN3CCN(C)CC3)cc2)cc1Nc1nccc(-c2cccnc2)n1 [Imatinib] + CS(=O)(=O)CCNCc1ccc(-c2ccc3ncnc(Nc4ccc(OCc5cccc(F)c5)c(Cl)c4)c3c2)o1 [Lapatinib] (partner 2 µM)
In short: as §1

Imatinib + Bortezomib = compound: Cc1ccc(NC(=O)c2ccc(CN3CCN(C)CC3)cc2)cc1Nc1nccc(-c2cccnc2)n1 [Imatinib] + CC(C)C[C@H](NC(=O)[C@H](Cc1ccccc1)NC(=O)c1cnccn1)B(O)O [Bortezomib] (partner 0.002 µM)
In short: as §1

Imatinib + Pictilisib = compound: Cc1ccc(NC(=O)c2ccc(CN3CCN(C)CC3)cc2)cc1Nc1nccc(-c2cccnc2)n1 [Imatinib] + CS(=O)(=O)N1CCN(Cc2cc3nc(-c4cccc5[nH]ncc45)nc(N4CCOCC4)c3s2)CC1 [Pictilisib] (partner 1 µM)
In short: as §1

Cell Line	relative viability (Imatinib + Crizotinib; first compound 0.02 µM)	relative viability (Imatinib + Crizotinib; first compound 0.06325 µM)	relative viability (Imatinib + Crizotinib; first compound 0.2 µM)	relative viability (Imatinib + Crizotinib; first compound 0.6325 µM)	relative viability (Imatinib + Crizotinib; first compound 2 µM)	relative viability (Imatinib + Lapatinib; first compound 0.02 µM)	relative viability (Imatinib + Lapatinib; first compound 0.06325 µM)	relative viability (Imatinib + Lapatinib; first compound 0.2 µM)	relative viability (Imatinib + Lapatinib; first compound 0.6325 µM)	relative viability (Imatinib + Lapatinib; first compound 2 µM)	relative viability (Imatinib + Bortezomib; first compound 0.02 µM)	relative viability (Imatinib + Bortezomib; first compound 0.2 µM)	relative viability (Imatinib + Bortezomib; first compound 0.6325 µM)	relative viability (Imatinib + Bortezomib; first compound 2 µM)	relative viability (Imatinib + Pictilisib; first compound 0.02 µM)	relative viability (Imatinib + Pictilisib; first compound 0.06325 µM)	relative viability (Imatinib + Pictilisib; first compound 0.2 µM)	relative viability (Imatinib + Pictilisib; first compound 0.6325 µM)	relative viability (Imatinib + Pictilisib; first compound 2 µM)	relative viability (Imatinib + Bortezomib; first compound 0.06325 µM)
NCI-H2347	0.675	0.674	0.729	0.647	0.797	0.995	0.913	1.05	1.04	0.91	0.846	1.04	1	0.876	0.414	0.508	0.64	0.453	0.738	–
NCI-H2405	0.917	0.879	0.827	0.772	0.843	1.05	–	1.1	0.961	1.15	–	0.92	1.01	0.983	0.482	–	0.428	0.353	0.52	0.857
NCI-H3122	0.253	0.292	0.324	0.313	0.255	1.03	1.04	–	1.02	0.989	0.985	1.04	0.96	1.05	0.647	0.551	0.572	0.666	0.679	1.06
PC-3 [JPC-3]	0.979	–	1.02	0.921	0.96	0.503	–	0.48	0.462	0.431	0.887	0.832	0.864	0.711	0.715	–	–	0.774	0.653	–
PC-14	1.15	0.936	0.935	0.958	0.848	0.388	0.24	0.301	0.321	0.317	0.923	0.96	0.949	0.844	0.69	–	0.874	0.688	0.859	0.911
RERF-LC-KJ	0.867	0.885	0.51	0.855	0.826	–	0.853	0.498	0.819	0.763	1.13	1.32	–	0.909	0.636	0.422	0.541	0.487	0.498	1.1
SK-LU-1	1.04	0.927	1.11	0.926	1.04	1.08	1.1	1.11	–	0.82	1.59	1.31	1.1	1.26	0.738	0.682	0.633	–	0.611	1.22
SW 1573	0.996	–	0.956	0.726	0.755	1.33	0.676	1.28	0.983	1.17	1.05	1.2	1.03	1.12	0.623	0.501	0.528	0.561	0.483	1.43
UMC-11	0.702	0.647	0.56	0.564	0.818	1.01	1.1	1.25	0.995	0.994	0.707	0.939	0.844	0.668	0.81	0.749	1	1.06	0.837	0.841
